Source: patent publication US10758534B2 (Vertex Pharmaceuticals Incorporated, priority 2014, dated 2020)

Biological target: T1, F508del (Homo sapiens, UniProt P13569, DEL508-508)
T1 construct: expressed in transfected cells
Assay: Protocol 1: membrane potential optical assay (FLIPR III, voltage sensing dye), identification of potentiator compounds
Format: cell-based
Settings: Table 3, compounds of Table 1
Outline: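 Gating potentiation is read as a membrane-potential fluorescence change (FLIPR III, voltage-sensing dye) after one forskolin addition under a Cl− gradient, with gluconate replacing chloride, pH 7.4. Cells are F508del-expressing NIH3T3 mouse fibroblasts held 24 h at 27 °C and exposed to compound before dye loading.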

T1 sequence (P13569 with tags, fused parts or gaps DEL508-508): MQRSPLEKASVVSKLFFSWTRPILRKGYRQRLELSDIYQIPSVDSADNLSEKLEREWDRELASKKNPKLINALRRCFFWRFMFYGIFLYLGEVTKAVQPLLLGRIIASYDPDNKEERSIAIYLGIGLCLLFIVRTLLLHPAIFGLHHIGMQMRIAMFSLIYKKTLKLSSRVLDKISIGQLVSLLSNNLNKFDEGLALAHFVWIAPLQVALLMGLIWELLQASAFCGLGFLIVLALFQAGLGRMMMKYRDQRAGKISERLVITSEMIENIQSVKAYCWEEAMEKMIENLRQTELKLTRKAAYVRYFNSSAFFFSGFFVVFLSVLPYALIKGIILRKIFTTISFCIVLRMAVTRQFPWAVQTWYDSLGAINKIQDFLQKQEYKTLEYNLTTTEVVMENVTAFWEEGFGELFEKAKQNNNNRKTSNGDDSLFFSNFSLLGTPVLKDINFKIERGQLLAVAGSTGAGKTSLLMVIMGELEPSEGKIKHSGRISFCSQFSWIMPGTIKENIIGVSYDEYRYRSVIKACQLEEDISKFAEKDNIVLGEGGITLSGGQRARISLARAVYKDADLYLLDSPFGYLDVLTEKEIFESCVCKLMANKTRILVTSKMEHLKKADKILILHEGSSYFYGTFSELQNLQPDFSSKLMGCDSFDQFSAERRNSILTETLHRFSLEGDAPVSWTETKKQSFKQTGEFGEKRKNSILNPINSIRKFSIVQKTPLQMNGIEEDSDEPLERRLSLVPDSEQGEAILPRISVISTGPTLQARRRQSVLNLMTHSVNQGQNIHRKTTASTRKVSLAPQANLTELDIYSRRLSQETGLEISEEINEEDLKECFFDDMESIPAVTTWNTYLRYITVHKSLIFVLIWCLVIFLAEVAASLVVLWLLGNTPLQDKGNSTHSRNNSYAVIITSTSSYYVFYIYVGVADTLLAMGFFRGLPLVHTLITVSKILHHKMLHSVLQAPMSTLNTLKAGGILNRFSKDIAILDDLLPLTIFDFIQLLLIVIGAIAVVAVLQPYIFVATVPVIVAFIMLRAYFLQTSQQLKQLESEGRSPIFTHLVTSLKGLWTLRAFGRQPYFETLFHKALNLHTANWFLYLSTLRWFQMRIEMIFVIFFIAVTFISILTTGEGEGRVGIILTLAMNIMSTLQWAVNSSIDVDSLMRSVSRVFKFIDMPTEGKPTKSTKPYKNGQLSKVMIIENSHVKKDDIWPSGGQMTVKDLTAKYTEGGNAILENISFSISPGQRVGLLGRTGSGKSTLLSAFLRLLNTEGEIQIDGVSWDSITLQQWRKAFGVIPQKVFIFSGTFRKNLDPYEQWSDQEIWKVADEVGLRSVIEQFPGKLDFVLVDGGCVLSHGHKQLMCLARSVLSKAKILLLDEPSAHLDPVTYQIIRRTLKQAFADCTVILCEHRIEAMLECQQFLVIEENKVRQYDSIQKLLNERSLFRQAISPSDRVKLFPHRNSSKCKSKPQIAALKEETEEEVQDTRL

Row | SMILES | EC30
1 | Cc1cc(C)c(Cn2nc(C(C)(C)C)cc2C(=O)NS(=O)(=O)c2cccnc2N)c(C)c1 [Compound 1106, N-[(2-amino-3-pyridyl)sulfonyl]-5-tert-butyl-2-[(2,4,6-trimethylphenyl)methyl]pyrazole-3-carboxamide] | + (“+” means greater than 10 uM)
2 | CC(C)Oc1ccc(-c2ccc(C(=O)NS(=O)(=O)c3cccc(N)n3)c(N3CC4CCCC4C3)n2)cn1 (stereo not drawn) [Compound 1107, 2-(3,3a,4,5,6,6a-hexahydro-1H-cyclopenta[c]pyrrol-2-yl)-N-[(6-amino-2-pyridyl)sulfonyl]-6-(6-isopropoxy-3-pyridyl)pyridine-3-carboxamide] | +++ (“+++” means <3 uM)
3 | CC(C)COc1cc(F)cc(-c2ccc(C(=O)NS(=O)(=O)c3cccc(N)n3)c(OC3CCCCC3C)n2)c1 (stereo not drawn) [Compound 1108, N-[(6-amino-2-pyridyl)sulfonyl]-6-(3-fluoro-5-isobutoxy-phenyl)-2-(2-methylcyclohexoxy)pyridine-3-carboxamide] | +++ (“+++” means <3 uM)
4 | CC(C)COc1ccc(F)c(-c2ccc(C(=O)NS(=O)(=O)c3cccc(N)n3)c(N3CCC(C)CC3)n2)c1 [Compound 1109, N-[(6-amino-2-pyridyl)sulfonyl]-6-(2-fluoro-5-isobutoxy-phenyl)-2-(4-methyl-1-piperidyl)pyridine-3-carboxamide] | ++ (“++” means between 3 uM and 10 uM)
5 | CC(C)COc1cc(F)cc(-c2ccc(C(=O)NS(=O)(=O)c3ccn[nH]3)c(N3CCC(C)(C)CC3)n2)c1 [Compound 1110, 2-(4,4-dimethyl-1-piperidyl)-6-(3-fluoro-5-isobutoxy-phenyl)-N-(1H-pyrazol-5-ylsulfonyl)pyridine-3-carboxamide] | +++ (“+++” means <3 uM)
6 | COc1ccc(C#N)cc1-c1ccc(C(=O)NS(=O)(=O)c2cccc(N)n2)c(Oc2c(C)cc(C)cc2C)n1 [Compound 1111, N-[(6-amino-2-pyridyl)sulfonyl]-6-(5-cyano-2-methoxy-phenyl)-2-(2,4,6-trimethylphenoxy)pyridine-3-carboxamide] | +++ (“+++” means <3 uM)
7 | CC(C)Oc1ccc(-c2ccc(C(=O)NS(=O)(=O)c3cccc(N)n3)c(N3CCC(c4ccccc4)C3)n2)cn1 (stereo not drawn) [Compound 1112, N-[(6-amino-2-pyridyl)sulfonyl]-6-(6-isopropoxy-3-pyridyl)-2-(3-phenylpyrrolidin-1-yl)pyridine-3-carboxamide] | ++ (“++” means between 3 uM and 10 uM)
8 | Cc1cc(C)c(Oc2nc(-c3ccc(OCc4ccccc4)cc3F)ccc2C(=O)NS(=O)(=O)c2cccc(N)n2)c(C)c1 [Compound 1113, N-[(6-amino-2-pyridyl)sulfonyl]-6-(4-benzyloxy-2-fluoro-phenyl)-2-(2,4,6-trimethylphenoxy)pyridine-3-carboxamide] | +++ (“+++” means <3 uM)
9 | COc1cncc(-c2ccc(C(=O)NS(=O)(=O)c3cccc(N)n3)c(Oc3c(C)cc(C)cc3C)n2)c1 [Compound 1115, N-[(6-amino-2-pyridyl)sulfonyl]-6-(5-methoxy-3-pyridyl)-2-(2,4,6-trimethylphenoxy)pyridine-3-carboxamide] | + (“+” means greater than 10 uM)
10 | COCC1CCCN(c2nc(-c3ccc(OC(C)C)nc3)ccc2C(=O)NS(=O)(=O)c2cccc(N)n2)C1 (stereo not drawn) [Compound 1116, N-[(6-amino-2-pyridyl)sulfonyl]-6-(6-isopropoxy-3-pyridyl)-2-[3-(methoxymethyl)-1-piperidyl]pyridine-3-carboxamide] | ++ (“++” means between 3 uM and 10 uM)
11 | CC(C)COc1cc(F)cc(-c2ccc(C(=O)NS(=O)(=O)c3cccc(N)n3)c(N(C)C3CC3)n2)c1 [Compound 1117, N-[(6-amino-2-pyridyl)sulfonyl]-2-[cyclopropyl(methyl)amino]-6-(3-fluoro-5-isobutoxy-phenyl)pyridine-3-carboxamide] | +++ (“+++” means <3 uM)
12 | CCc1cccc(-c2ccc(C(=O)NS(=O)(=O)c3cccc(N)n3)c(Oc3c(C)cc(C)cc3C)n2)c1 [Compound 1118, N-[(6-amino-2-pyridyl)sulfonyl]-6-(3-ethylphenyl)-2-(2,4,6-trimethylphenoxy)pyridine-3-carboxamide] | +++ (“+++” means <3 uM)
13 | CC(C)COc1cc(F)cc(-c2ccc(C(=O)NS(=O)(=O)c3ccn[nH]3)c(N3CC(C)OC(C)C3)n2)c1 (stereo not drawn) [Compound 1119, 2-(2,6-dimethylmorpholin-4-yl)-6-(3-fluoro-5-isobutoxy-phenyl)-N-(1H-pyrazol-5-ylsulfonyl)pyridine-3-carboxamide] | ++ (“++” means between 3 uM and 10 uM)
14 | Cc1cc(C)c(Oc2nc(-c3ccccc3C)ccc2C(=O)NS(=O)(=O)c2cccc(N)n2)c(C)c1 [Compound 1120, N-[(6-amino-2-pyridyl)sulfonyl]-6-(o-tolyl)-2-(2,4,6-trimethylphenoxy)pyridine-3-carboxamide] | +++ (“+++” means <3 uM)
15 | CC(C)COc1cc(F)cc(-c2ccc(C(=O)NS(=O)(=O)c3cccc(N)n3)c(N3CCC(C)C3(C)C)n2)c1 (stereo not drawn) [Compound 1121, N-[(6-amino-2-pyridyl)sulfonyl]-6-(3-fluoro-5-isobutoxy-phenyl)-2-(2,2,3-trimethylpyrrolidin-1-yl)pyridine-3-carboxamide] | +++ (“+++” means <3 uM)
16 | Cc1cc(C)c(Oc2nc(-c3ccccc3)ccc2C(=O)NS(=O)(=O)c2cccc(NCCN(C)C)n2)c(C)c1 [Compound 1122, N-[[6-(2-dimethylaminoethylamino)-2-pyridyl]sulfonyl]-6-phenyl-2-(2,4,6-trimethylphenoxy)pyridine-3-carboxamide] | ++ (“++” means between 3 uM and 10 uM)
17 | CC(C)Oc1cc(F)cc(-c2ccc(C(=O)NS(=O)(=O)c3cccc(N)n3)c(N3[C@H](C)CC[C@@H]3C)n2)c1 [Compound 1123, N-[(6-amino-2-pyridyl)sulfonyl]-2-[(2S,5R)-2,5-dimethylpyrrolidin-1-yl]-6-(3-fluoro-5-isopropoxy-phenyl)pyridine-3-carboxamide] | +++ (“+++” means <3 uM)
18 | COc1ccccc1S(=O)(=O)NC(=O)c1ccc(C(C)(C)C)nc1-c1ccc(C)cc1 [Compound 1124, 6-tert-butyl-N-(2-methoxyphenyl)sulfonyl-2-(p-tolyl)pyridine-3-carboxamide] | +++ (“+++” means <3 uM)
19 | C[C@@H]1CC[C@H](C)N1c1nc(-c2ccc(OC3CC3)nc2)ccc1C(=O)NS(=O)(=O)c1cccc(N)n1 [Compound 1125, N-[(6-amino-2-pyridyl)sulfonyl]-6-[6-(cyclopropoxy)-3-pyridyl]-2-[(2S,5R)-2,5-dimethylpyrrolidin-1-yl]pyridine-3-carboxamide] | ++ (“++” means between 3 uM and 10 uM)
20 | Cc1cc(C)c(Oc2nc(-c3cnc(NC4CC4)nc3)ccc2C(=O)NS(=O)(=O)c2cccc(N)n2)c(C)c1 [Compound 1126, N-[(6-amino-2-pyridyl)sulfonyl]-6-[2-(cyclopropylamino)pyrimidin-5-yl]-2-(2,4,6-trimethylphenoxy)pyridine-3-carboxamide] | + (“+” means greater than 10 uM)
21 | CC(C)COc1cc(F)cc(-c2ccc(C(=O)NS(=O)(=O)c3ccn[nH]3)c(N3CCC4(CC3)CC4)n2)c1 [Compound 1127, 2-(6-azaspiro[2.5]octan-6-yl)-6-(3-fluoro-5-isobutoxy-phenyl)-N-(1H-pyrazol-5-ylsulfonyl)pyridine-3-carboxamide] | +++ (“+++” means <3 uM)
